Measured values from patent publication US20140303367A1, “Methods for Synthesizing Molybdopterin Precursor Z Derivatives” (Alexion Pharma International Sàrl, priority 2011, published 2014).

Columns and labels:
[1] = molecular target: MPT synthase from E. coli (Escherichia coli, UniProt P30748+P30749); experiment: In vitro synthesis of MPT from cPMP; type: biochemical; details: FIGS. 2 and 3; for conversion of cPMP into MPT: all samples
Description: In vitro synthesis of MPT was compared using samples of synthetic precursor Z (cPMP) and cPMP purified from E. coli. MPT synthesis also involved the use of in vitro assembled MPT synthase from E. coli. See U.S. Pat. No. 7,504,095 and “Biosynthesis and molecular biology of the molybdenum cofactor (Moco)” in Metal Ions in Biological Systems, Mendel, Ralf R. and Schwarz, Günter, Informa Plc, 2002, Vol. 39, pages 317-68.

[2] = tested on: human apo-sulfite oxidase; experiment: In vitro synthesis of Moco from cPMP (conversion into MPT, molybdate insertion, reconstitution of apo-sulfite oxidase); type: biochemical; details: FIG. 1
Description: In vitro synthesis of Moco was compared using samples of synthetic precursor Z (cPMP) and cPMP purified from E. coli. Moco synthesis also involved the use of the purified components E. coli MPT synthase, gephyrin, molybdate, ATP, and apo-sulfite oxidase. See U.S. Pat. No. 7,504,095 and “Biosynthesis and molecular biology of the molybdenum cofactor (Moco)” in Metal Ions in Biological Systems, Mendel, Ralf R. and Schwarz, Günter, Informa Plc, 2002, Vol. 39, pages 317-68. The assay is based on the conversion of cPMP into MPT, the subsequent molybdate insertion using recombinant gephyrin and ATP, and finally the reconstitution of human apo-sulfite oxidase.

Chain of MPT synthase from E. coli (P30749 whole entry): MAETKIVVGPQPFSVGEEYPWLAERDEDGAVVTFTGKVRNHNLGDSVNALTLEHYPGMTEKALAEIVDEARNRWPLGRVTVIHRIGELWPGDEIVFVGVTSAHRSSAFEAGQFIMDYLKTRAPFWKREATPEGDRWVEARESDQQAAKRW
Chain of MPT synthase from E. coli (P30748 whole entry): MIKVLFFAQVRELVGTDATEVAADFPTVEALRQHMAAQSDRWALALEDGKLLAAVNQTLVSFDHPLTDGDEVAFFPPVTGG

Row | SMILES | conversion of cPMP into MPT ([1]; in vitro) | MPT synthesis ([1]; in vitro assembled MPT synthase from E. coli, three repetitions) | MPT conversion compared to E. coli purified cPMP ([1]; in vitro, three repetitions) | Moco synthesis ([2]; E. coli MPT synthase, gephyrin, molybdate, ATP, apo-sulfite oxidase) | Moco conversion in comparison to E. coli purified cPMP [2]
1 | Nc1nc(=O)c2c([nH]1)N[C@@H]1O[C@@H]3COP(=O)(O)O[C@@H]3C(O)(O)[C@@H]1N2 [E. coli purified cPMP, reference compound] | linear conversion |  |  |  | 
2 | Nc1nc2c(c(=O)[nH]1)N[C@@H]1[C@H](N2)O[C@@H]2COP(=O)(O)O[C@@H]2C1(O)O [synthetic cPMP, (4aR,5aR,11aR,12aS)-1,3,2-Dioxaphosphorino[4′,5′:5,6]pyrano[3,2-g]pteridin-10(4H)-one,8-amino-4a,5a,6,9,11,11a,12,12a-octahydro-2,12,12-trihydroxy-2-oxide] | linear conversion | confirmed | no apparent differences | confirmed | no differences
